Results taken from patent publication US10307410B2, “Mcl-1 modulating compounds for cancer treatment” (CENTRE REGIONAL DE LUTTE CONTRE LE CANCER FRANCOIS BACLESSE, priority 2014, dated 2019).
Entries after “also recorded” stand apart in the source; their conditions may differ.

Columns and labels:
Noxa/Mcl-1 interaction = target: T1, Noxa/Mcl-1 interaction (Homo sapiens, UniProt Q07820); experiment: BRET assay, Noxa/Mcl-1 interaction; format: cell-based; conditions: BRET in Hela cells, 10 μM, 16 hours
T1 construct: expressed in transfected cells; host or cells: HeLa cells
T1 sequence (Q07820 whole entry): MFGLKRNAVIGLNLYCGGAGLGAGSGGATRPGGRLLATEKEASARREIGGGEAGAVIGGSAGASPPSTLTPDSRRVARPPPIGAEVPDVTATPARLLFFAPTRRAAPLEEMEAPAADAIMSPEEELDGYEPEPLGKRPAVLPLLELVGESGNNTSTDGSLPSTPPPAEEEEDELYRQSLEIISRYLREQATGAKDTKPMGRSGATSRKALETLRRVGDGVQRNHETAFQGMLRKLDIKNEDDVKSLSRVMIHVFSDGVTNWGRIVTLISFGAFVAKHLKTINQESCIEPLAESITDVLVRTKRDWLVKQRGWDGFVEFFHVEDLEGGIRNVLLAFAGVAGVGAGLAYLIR
Description: (§1) Hela cells were seeded on 6-well plates and transfected with 200 ng/well of plasmid pRLuc-Bax, pRLuc-Puma or pRLuc-Noxa coding for BRET donors and 1 µg/well of peYFP-Bcl-xL or peYFP-Mcl-1 coding for BRET acceptors (or with pCMV-Bcl-xL or pCMV-Mcl-1 for control). Twenty-four hours after transfection, cells were trypsinized and re-seeded into white 96 well plate flat bottom, incubated for another day, and then treated with drugs for 16 hours at 10 μM. Light emission at 485 nm and 530 nm was measured consecutively using the Mithras fluorescence-luminescence detector LB 940 (Berthold) after adding the luciferase substrate, coelenterazine H (Uptima) at a final concentration of 5 μM. BRET ratios were calculated as described [Terrillon et al. (2003) Mol Endocrinol 17, 677-691, Vo et al. (2012) Eur J Med Chem., 286-93].

Mcl-1/Puma interaction = target: T2, Mcl-1/Puma interaction (Homo sapiens, UniProt Q07820); experiment: BRET assay, Mcl-1/Puma interaction; format: cell-based; conditions: BRET in Hela cells, 10 μM, 16 hours
T2 construct: expressed in transfected cells; host or cells: HeLa cells
T2 sequence (Q07820 whole entry): as above
Description: as §1

[1] = test system: SKOV3 chemoresistant ovarian cancer cells; experiment: Pyridoclax / ABT-737 association, apoptotic cell death; format: cell-based, human; conditions: SKOV3, single agent
Description: (§2) FIG. 4 represents the effect of the association of Pyridoclax with ABT-737 on chemoresistant ovarian cancer cells IGROV1-R10 (top) and SKOV3 (bottom). Cells were concomitantly (A, E) or sequentially (B) exposed to 25 μM Pyridoclax and 5 μM ABT-737, and cellular effects were assessed either longitudinally (A, B, E) or after 24 h (C, D, F). [A, B, E] real time cellular activity assessed by impedancmetry (xCELLigence technology), after concomitant exposure (A, E) or sequential exposure (B; 24 h Pyridoclax, then ABT-737). [C]: Cellular morphology and DNA content histograms after a 24 h concomitant exposure. [D and F]: PARP and caspase 3 cleavage after a 24 h concomitant exposure.
(§3) Adherent and floating cells were pooled, washed with 1×PBS and centrifuged at 200 g for 5 min before staining by Annexin V, propidium iodide or both, as recommended by the manufacturer (Roche Diagnostic, Indianapolis, USA). Briefly, 100 μl of Annexin V—Flit or propidium iodide or both were added on the cells pellet (10^6 cells) and incubated 15 minutes at room temperature in obscurity. 500 μl of sample buffer was then added on the suspensions that were thereafter analyzed using a Gallios flow cytometer (Beckman Coulter, Roissy, France) and cell cycle distribution was determined using Kaluza acquisition software (Beckman Coulter).
(§4) Cells were rinsed with ice-cold PBS, suspended in a lysis buffer [RIPA:NaCl 150 mM, Tris (pH 8) 50 mM, Triton X100 1%, PMSF 4 mM, EDTA 5 mM, NaF 10 mM, NaPPi 10 mM, Na3OV4 1 mM, aprotinin 0.5 μl/ml and 4.6 ml ultra pure water] and incubated on ice for 30 minutes. Lysates were collected after centrifugation (13200 g, 10 min, 4° C.) and protein concentrations were determined using the Bradford assay (Bio-Rad, Hercules, USA). 20 μg of protein were separated by SDS-PAGE on a 4-12% gradient polyacrylamide gel (Invitrogen, Cergy-Pontoise, France) and transferred to Hybond-PVDF membranes (Amersham, Orsay, France). […]

[2] = test system: IGROV1-R10 chemoresistant ovarian cancer cells; experiment: as above; format: cell-based; conditions: IGROV1-R10, single agent
Description: as §2, §3, §4

CN(C)CC[C@H](CSc1ccccc1)Nc1ccc(S(=O)(=O)NC(=O)c2ccc(N3CCN(Cc4ccccc4-c4ccc(Cl)cc4)CC3)cc2)cc1[N+](=O)[O-] [ABT-737, 4-[4-[[2-(4-chlorophenyl)phenyl]methyl]piperazin-1-yl]-N-[4-[[(2R)-4-(dimethylamino)-1-phenylsulfanylbutan-2-yl]amino]-3-nitrophenyl]sulfonylbenzamide, reference compound]
effect on Noxa/Mcl-1 interaction (Noxa/Mcl-1 interaction): not able to modify these interactions | effect on Mcl-1/Puma interaction (Mcl-1/Puma interaction): not able to modify these interactions; also recorded: not able to modify this interaction | cell death as single agent [1]: neither ABT-737 nor Pyridoclax induced cell death as single agents | cell death as single agent [2]: neither ABT-737 nor Pyridoclax induced cell death as single agents
